Results from US20220204510A1, “2,3-DIHYDRO-1H-PYRROLIZINE-7-FORMAMIDE DERIVATIVE AND APPLICATION THEREOF” (CHIA TAI TIANQING PHARMACEUTICAL GROUP CO., LTD., priority 2018, published 2022).

Legend:
Assay in all cases: Inhibition of human liver microsomal cytochrome P450 isoenzymes
Type in all cases: in vitro ADME
Settings in all cases: human liver microsomes
CYP3A4 = biological target: T1, CYP3A4 (Homo sapiens, UniProt P08684)
T1 construct: from tissue; host or cells: human liver microsomes
Experimental: (§1) Experimental objective: to determine the inhibitory effect of the test compound on the activity of human liver microsomal cytochrome P450 isoenzymes (CYP1A2, CYP2C9, CYP2C19, CYP2D6 and CYP3A4). Experimental procedures: first, the test compound (10 mM) was diluted in gradient to prepare working solutions (100× final concentration) at concentrations of: 5, 1.5, 0.5, 0.15, 0.05, 0.015, and 0.005 mM, and working solutions of positive inhibitors for P450 isoenzymes (CYP1A2, CYP2C9, CYP2C19, CYP2D6, and CYP3A4) and the specific substrate mixtures thereof (5 in 1) were prepared simultaneously; human liver microsomes frozen in a−80° C. refrigerator were thawed on ice, and after all thawed, the human liver microsomes were diluted with PB to prepare a working solution at a specific concentration (0.253 mg/mL); 20 μL of the substrate mixture (20 μL of PB was added into the blank well) and 158 μL of the working solution of human liver microsomes were added into the reaction plate which was then placed on ice for use; then 2 μL of the test compound at each concentration (N=1) and a specific inhibitor (N=2) were added into the corresponding well, and the group without the inhibitor (test compound or the positive inhibitor) was added with a corresponding organic solvent as a control sample (the test compound control sample was 1:1 DMSO:MeOH; the positive control sample was 1:9 DMSO:MeOH); after pre-incubation under a 37° C. water bath for 10 min, 20 μL of a coenzyme factor (NADPH) solution was added into the reaction plate and incubated under a 37° C. water bath for 10 min, 400 μL of a cold acetonitrile solution (the internal standard was 200 ng/mL Tolbutamide and Labetalol) was added to terminate the reaction, and the reaction plate was placed on a shaker and shaken for 10 min; after centrifugation at 4,000 rpm for 20 min, 200 μL of the supernatant was collected and added to 100 μL of water to dilute the sample, and, finally, the plate was sealed, oscillated shaken evenly, and subjected to LC/MS/MS detection.

CYP2C19 = biological target: T2, CYP2C19 (Homo sapiens, UniProt P33261)
T2 construct: from tissue; host or cells: human liver microsomes
Experimental: as §1

CYP2C9 = biological target: T3, CYP2C9 (Homo sapiens, UniProt P11712)
T3 construct: from tissue; host or cells: human liver microsomes
Experimental: as §1

CYP2D6 = biological target: T4, CYP2D6 (Homo sapiens, UniProt P10635)
T4 construct: from tissue; host or cells: human liver microsomes
Experimental: as §1

CYP1A2 = biological target: T5, CYP1A2 (Homo sapiens, UniProt P05177)
T5 construct: from tissue; host or cells: human liver microsomes
T5 sequence (P05177 1-516): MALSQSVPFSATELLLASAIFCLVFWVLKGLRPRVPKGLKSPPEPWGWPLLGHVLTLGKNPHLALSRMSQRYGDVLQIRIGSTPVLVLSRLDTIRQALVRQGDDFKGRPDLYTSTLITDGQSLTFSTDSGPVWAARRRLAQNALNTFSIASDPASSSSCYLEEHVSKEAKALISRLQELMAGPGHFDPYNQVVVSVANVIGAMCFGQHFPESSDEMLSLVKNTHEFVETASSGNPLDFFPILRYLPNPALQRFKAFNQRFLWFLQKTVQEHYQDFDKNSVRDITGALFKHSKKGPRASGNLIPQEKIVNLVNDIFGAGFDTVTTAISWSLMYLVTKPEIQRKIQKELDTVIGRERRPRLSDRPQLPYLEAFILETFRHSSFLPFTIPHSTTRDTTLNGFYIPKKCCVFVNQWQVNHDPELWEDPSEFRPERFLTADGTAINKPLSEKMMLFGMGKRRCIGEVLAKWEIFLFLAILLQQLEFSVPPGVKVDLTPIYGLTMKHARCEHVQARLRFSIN
Experimental: as §1

Measured: IC50

T2 sequence (P33261 whole entry): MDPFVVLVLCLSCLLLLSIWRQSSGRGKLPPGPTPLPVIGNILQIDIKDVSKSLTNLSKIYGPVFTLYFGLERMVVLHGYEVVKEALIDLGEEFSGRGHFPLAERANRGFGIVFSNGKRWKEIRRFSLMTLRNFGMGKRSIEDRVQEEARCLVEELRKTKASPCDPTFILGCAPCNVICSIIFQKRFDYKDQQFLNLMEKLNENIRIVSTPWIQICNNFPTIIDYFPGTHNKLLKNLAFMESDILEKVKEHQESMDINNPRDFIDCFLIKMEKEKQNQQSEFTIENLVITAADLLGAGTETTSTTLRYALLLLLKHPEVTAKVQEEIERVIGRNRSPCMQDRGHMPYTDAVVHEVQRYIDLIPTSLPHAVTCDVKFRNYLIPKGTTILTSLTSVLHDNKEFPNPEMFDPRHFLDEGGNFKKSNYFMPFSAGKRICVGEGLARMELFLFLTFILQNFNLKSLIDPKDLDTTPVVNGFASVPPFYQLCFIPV
T4 sequence (P10635 whole entry): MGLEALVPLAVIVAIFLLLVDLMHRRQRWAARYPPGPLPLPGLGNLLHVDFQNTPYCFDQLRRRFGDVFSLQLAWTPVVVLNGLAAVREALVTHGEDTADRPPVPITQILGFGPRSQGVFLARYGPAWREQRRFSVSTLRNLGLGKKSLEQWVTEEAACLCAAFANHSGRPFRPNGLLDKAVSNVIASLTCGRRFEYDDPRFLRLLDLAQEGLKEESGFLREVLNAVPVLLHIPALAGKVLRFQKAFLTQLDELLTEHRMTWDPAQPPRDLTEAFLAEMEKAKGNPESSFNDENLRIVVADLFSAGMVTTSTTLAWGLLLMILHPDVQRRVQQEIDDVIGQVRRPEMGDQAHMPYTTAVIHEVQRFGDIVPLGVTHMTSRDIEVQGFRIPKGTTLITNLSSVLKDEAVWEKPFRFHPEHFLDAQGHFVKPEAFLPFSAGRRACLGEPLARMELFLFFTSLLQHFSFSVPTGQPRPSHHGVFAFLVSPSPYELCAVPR
T3 sequence (P11712 whole entry): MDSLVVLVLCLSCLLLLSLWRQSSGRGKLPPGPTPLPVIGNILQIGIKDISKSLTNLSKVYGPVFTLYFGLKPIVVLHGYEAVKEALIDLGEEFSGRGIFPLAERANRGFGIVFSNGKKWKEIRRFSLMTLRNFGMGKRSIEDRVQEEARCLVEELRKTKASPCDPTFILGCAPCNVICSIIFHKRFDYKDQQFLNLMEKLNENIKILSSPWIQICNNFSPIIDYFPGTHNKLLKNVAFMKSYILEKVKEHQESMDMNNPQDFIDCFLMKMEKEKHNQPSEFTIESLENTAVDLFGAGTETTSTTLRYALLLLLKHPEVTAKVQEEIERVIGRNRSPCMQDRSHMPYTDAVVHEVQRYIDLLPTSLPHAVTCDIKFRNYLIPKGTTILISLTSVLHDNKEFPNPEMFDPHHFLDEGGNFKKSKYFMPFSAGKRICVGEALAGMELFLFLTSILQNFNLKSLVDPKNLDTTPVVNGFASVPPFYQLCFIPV
T1 sequence (P08684 whole entry): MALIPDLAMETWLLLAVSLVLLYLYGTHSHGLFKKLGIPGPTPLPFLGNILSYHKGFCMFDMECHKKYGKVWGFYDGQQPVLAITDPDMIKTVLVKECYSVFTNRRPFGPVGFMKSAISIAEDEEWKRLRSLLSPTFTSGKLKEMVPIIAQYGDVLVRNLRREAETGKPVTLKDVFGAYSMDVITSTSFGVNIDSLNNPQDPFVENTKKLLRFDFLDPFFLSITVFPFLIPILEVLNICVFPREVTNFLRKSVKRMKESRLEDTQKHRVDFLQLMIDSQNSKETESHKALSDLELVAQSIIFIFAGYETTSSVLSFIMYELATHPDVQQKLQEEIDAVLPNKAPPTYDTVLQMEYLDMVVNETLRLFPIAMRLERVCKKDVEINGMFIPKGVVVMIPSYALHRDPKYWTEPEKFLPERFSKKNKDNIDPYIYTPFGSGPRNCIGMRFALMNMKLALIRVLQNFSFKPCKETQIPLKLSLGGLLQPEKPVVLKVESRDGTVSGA

C[C@]1(NC(=O)C(=O)c2c(Cl)c(C(=O)Nc3ccc(F)c(F)c3)c3n2CCC3)CC[C@H](CC(=O)O)CC1 [Compound 18]
> 50 µM: CYP3A4 | CYP2C19 | CYP2C9 | CYP2D6 | CYP1A2

C[C@]1(NC(=O)C(=O)c2c(Cl)c(C(=O)Nc3cc(F)c(F)c(F)c3)c3n2CCC3)CC[C@H](CC(=O)O)CC1 [Compound 25]
> 50 µM: CYP3A4 | CYP2C19 | CYP2C9 | CYP2D6 | CYP1A2
